According to paper PMC11546719, “Immune Modulatory Profile of the Pateamines PatA and Des-Methyl Des-Amino PatA” (International Journal of Molecular Sciences, 2024):

Legend:
M2 MdMs = assay: Polarization of MdMs to M2 MdMs (zombie staining, flow cytometry, ELISA/CBA); type: cell-based, human; conditions: for Inflammatory environment (inflammatory mediators in supernatant): ELISA or CBA; for Apoptosis (zombie staining): IL-4 polarization, 0.5-5 nM; for Effect on the release of inflammatory markers, M2 MdM: summary table
Method: (§1) The differentiation of human monocytes to macrophages (MdMs) was performed as previously described. Briefly, 0.5 × 10^6 CD14^+ cells/well were pretreated with different concentrations of PatA and DMDA or vehicle (DMSO) for 30 min. After pre-incubation, differentiation was initiated by the addition of 10 ng/mL GM-CSF for M1 MdMs or 50 ng/mL M-CSF for M2 MdMs and incubated for 7 days.
(§2) The polarization of MdMs to M1 or M2 MdMs was performed as previously described. M1 and M2 MdM polarization was conducted in separate experiments. Briefly, M1 MdMs were polarized in presence of PatA (0.5, 2.5, 5 nM), DMDA (0.5, 2.5, 5 nM) or vehicle (DMSO) with 20 ng/mL human IFN-γ for 48 h. M2 MdMs were polarized in presence of PatA (0.5, 2.5, 5 nM), DMDA (0.5, 2.5, 5 nM) or vehicle (DMSO) with 10 ng/mL human IL-4 for 24 h.
(§3) Surface marker analysis was performed as described previously. Briefly, 1.5–2 × 10^5 cells of each sample were blocked with human FcR Blocking Reagent (15 min, 4 °C). A Zombie Aqua™ Fixable Viability Kit (1:500 dilution, BioLegend, San Diego, CA, USA) was used according to the manufactory protocol to discriminate living and dead cells. Afterwards, samples were stained with a mixture of different surface marker antibodies (15 min, 4 °C) and measured with MACSQuant® Analyzer 10 flow cytometer. For M1-/M2-MdMs anti-CD86, anti-CD14, anti-HLA-DR, anti-CD206, anti-CD80, anti-TREM2 and anti-CD163 were used. For T cells, anti-CD69, anti-CD54, anti-CD49a, anti-CD18, anti-CD134, anti-CD154, anti-CD3 and anti-CD25 were analyzed. For B cells, anti-CD27, anti-CD19 and anti-CD38 were applied. For T cell and B cell proliferation assay, freshly isolated T and B cells were stained with CTV and detected using flow cytometry. Naïve B cells were characterized as CD19^+CD27^lowCD38^med, memory B cells as CD19^+CD27^med CD38^low and plasma cells as CD27^+CD38^+ cells. M1 MdMs and M2 MdMs cell population was gated using FSC/SSC channel. T cells were gated as CD3^+CD25^+ positive cells. The geometric mean of the fluorescent intensity was calculated using FlowJo software v10 (Treestar, Ashland, […], USA). Fold induction of surface marker expression was calculated using the DMSO-treated cells as the control.
(§4) For determination of cytokine concentrations in the supernatant of humane immune cells, cytometric bead array (BD Biosciences, Heidelberg, Germany) for IL-10, IL-17, IL-8, IL-6, IFN-γ and CCL2 was used. For the detection of CCL18, CCL17, IgG, IgA and PGE2, an ELISA was performed. The cytometric bead arrays and the ELISAs were performed according to the protocol of the supplier.

[1] = system: Salmonella typhimurium strain TA98; assay: Ames MPF test, strain TA98; type: cell-based; conditions: TA98, with and without S9, 10-250 nM
Method: The Ames MPF 98/100 test (Xenometrix, Allschwil, Switzerland) was performed as recommended by the supplier and recently published. Briefly, two bacteria strains incapable of producing histidine (Salmonella typhimurium strains TA98 and TA100) were used. Liver homogenate S9 was applied to simulate the metabolic conversions of PatA and DMDA. After exposure to increasing concentrations of PatA (0, 10, 50, 250 nM), DMDA (0, 10, 50, 250 nM) or with positive controls (2 μg/mL for 2-NF (TA98), 2.5 μg/mL for 4-NQO (TA100), 63 μg/mL (TA100 with SF9) and 25 µg/mL (TA98 with SF9) for 2-AA), the cultures were diluted in pH indicator medium lacking histidine and incubated for two days. Cells that had undergone reversion to amino acid prototrophy grew into colonies and bacterial metabolism reduced the pH of the medium, changing the color of that well. Revertant colony numbers of each well were counted and related to the negative control (DMSO). The experiment was conducted once in triplicate. The Ames MPF calculation sheet provided by Xenometrix was used for data analysis. Fold induction over the baseline was calculated as the ratio of the mean number of positive wells to the baseline. The baseline was obtained by adding one standard deviation to the mean number of positive wells of the solvent control. Compounds with mutagenic potential were characterized by revertant numbers above the baseline.

T cells = assay: Energy metabolism (Seahorse OCR/ECAR) in T cells; type: cell-based, human; conditions: 5 days, PatA, DMDA 0.25-0.5 nM, silvestrol 5 nM
Method: (§5) The determination of the energy metabolism was performed as described previously. Briefly, for the analysis of the extracellular acidification rate (ECAR) and the oxygen consumption rate (OCR) for human B cells, Tcells, M1 MdMs and M2 MdMs, the Seahorse XFe96 FluxPak (Agilent, Waldbronn, Germany) was used as recommended by the manufacturer. MdMs were polarized to M1 or M2 MdMs in the presence of PatA (0.5, 2.5, 5 nM), DMDA (0.5, 2.5, 5 nM) or vehicle (DMSO) for 48 h or 24 h, respectively. T cells were activated in the presence of PatA (0.25, 0.5 nM), DMDA (0.25, 0.5 nM), silvestrol or DMSO. B cells were activated in the presence of PatA (0.25, 0.5 nM), DMDA (0.25, 0.5 nM), silvestrol (5 nM) or rapamycin (10 ng/mL positive control). Cells were washed with Seahorse XF RPMI medium pH 7.4 (Agilent, Waldbronn, Germany) and OCR and ECAR were measured as octuplicates for a period of 160 min using the Seahorse XFe96 Analyzer (Agilent, Waldbronn, Germany) and analyzed by Wave Software 2.6.3.8 (Agilent, Waldbronn, Germany). The relative values were calculated by relating the OCR or ECAR values obtained after 50 min to the values of the vehicle control (not stimulated).

B cells = assay: Energy metabolism (Seahorse OCR/ECAR) in B cells; type: cell-based, human; conditions: 5 days, PatA, DMDA 0.25-0.5 nM, silvestrol 5 nM, rapamycin 10 ng/mL
Method: as §5

M1 MdMs = assay: Polarization of MdMs to M1 MdMs (zombie staining, flow cytometry, ELISA/CBA); type: cell-based, human; conditions: for Surface marker expression (CD86, CD80, TREM2, HLA-DR, CD206, CD14, CD163) / Apoptosis (zombie staining) / Inflammatory environment: release of cytokines (IL-6, IL-8, CCL2, CCL17, CL18, IFN-γ) and PGE2: M1 MdMs; for Surface marker expression (CD86, CD80, TREM2, HLA-DR, CD206, CD14, CD163) / Apoptosis (zombie staining): 48 h; for Surface marker expression (CD86, CD80, TREM2, HLA-DR, CD206, CD14, CD163): flow cytometry; for Apoptosis (zombie staining): IFN-γ polarization, 0.5-5 nM; for Inflammatory environment: release of cytokines (IL-6, IL-8, CCL2, CCL17, CL18, IFN-γ) and PGE2: supernatant, ELISA or CBA; for Effect on the release of inflammatory markers, M1 MdM: summary table
Method: as §1, §2, §3, §4

[2] = Transport assay, porous membrane without cell barrier; type: in vitro ADME; conditions: 100 nM; for Transport rate without a cell barrier: apical to basolateral
[3] = M2 MdMs, CD163low population, 24 h

Structure (SMILES): CC(/C=C/C(C)=C/[C@@H]1Cc2nc(cs2)CCCCC(=O)O[C@@H](C)C/C(C)=C/C=C\C(=O)O1)=C\CN(C)C [DMDA, des-methyl des-amino pateamine A]
- TREM2 surface marker expression (M2 MdMs; M2 MdMs, CD163low population, 24 h, 5 nM): increased the anti-inflammatory surface marker TREM2
- Inflammatory environment (inflammatory mediators in supernatant) (M2 MdMs; M2 MdMs): did not affect the inflammatory environment
- Apoptosis (zombie staining) (M2 MdMs; M2 MdMs, 24 h): did not induce apoptosis
- Effect on the release of inflammatory markers, M2 MdM (M2 MdMs): No effect
- Mutagenic potential (Ames test) [1]: negative in all Ames mutagenic assays
- Energy metabolism: glycolysis (ECAR) and oxidative phosphorylation (OCR) (T cells): did not alter the energy metabolism
- Energy metabolism: glycolysis (ECAR) and oxidative phosphorylation (OCR) (B cells): induced only glycolysis
- Surface marker expression (CD86, CD80, TREM2, HLA-DR, CD206, CD14, CD163) (M1 MdMs): only reduced CD14 expression
- Apoptosis (zombie staining) (M1 MdMs): Neither PatA nor DMDA induced apoptosis
- Inflammatory environment: release of cytokines (IL-6, IL-8, CCL2, CCL17, CL18, IFN-γ) and PGE2 (M1 MdMs): did not affect the inflammatory environment
- Effect on the release of inflammatory markers, M1 MdM (M1 MdMs): No effect
- Transport rate without a cell barrier ([2]; 4 h): about 28%
- Transport rate without a cell barrier ([2]; 24 h): ~41%

Structure (SMILES): CC(/C=C/C(C)=C/[C@@H]1Cc2nc(cs2)[C@@H](C)C[C@@H](N)CC(=O)O[C@@H](C)C/C(C)=C/C=C\C(=O)O1)=C\CN(C)C [PatA, pateamine A]
- CD80 surface marker expression (M2 MdMs; [3]): induced the pro-inflammatory marker CD80
- CD206 surface marker expression (M2 MdMs; [3]): reduced the anti-inflammatory marker CD206
- Inflammatory environment (inflammatory mediators in supernatant) (M2 MdMs; M2 MdMs): did not affect the inflammatory environment
- Apoptosis (zombie staining) (M2 MdMs; M2 MdMs, 24 h): did not induce apoptosis
- Effect on the release of inflammatory markers, M2 MdM (M2 MdMs): No effect
- Mutagenic potential (Ames test) [1]: negative in all Ames mutagenic assays
- Energy metabolism: glycolysis (ECAR) and oxidative phosphorylation (OCR) (T cells): did not alter the energy metabolism
- Energy metabolism: glycolysis (ECAR) and oxidative phosphorylation (OCR) (B cells): induced oxidative phosphorylation and glycolysis
- Surface marker expression (CD86, CD80, TREM2, HLA-DR, CD206, CD14, CD163) (M1 MdMs): no significant effect on surface marker expression
- Apoptosis (zombie staining) (M1 MdMs): Neither PatA nor DMDA induced apoptosis
- Inflammatory environment: release of cytokines (IL-6, IL-8, CCL2, CCL17, CL18, IFN-γ) and PGE2 (M1 MdMs): did not affect the inflammatory environment
- Effect on the release of inflammatory markers, M1 MdM (M1 MdMs): No effect
- Transport rate without a cell barrier ([2]; 4 h): about 28%
- Stability in the media under transport assay conditions ([2]; inferred from transport without cell barrier): probably unstable in the media
